Assay results from paper PMC11772769, “Selective cargo and membrane recognition by SNX17 regulates its interaction with Retriever” (EMBO Reports, 2024).
Substitutions are numbered along the chain they refer to. Like-named read-outs stand apart in the source and are kept apart here. One block for each compound: values may come before it. Where no end group is shown, it is not given here.

What was measured:
[1] = target: T1, SNX17FERM-CT (amino acids 109-470) (Homo sapiens, UniProt Q15036); assay: Fluorescence anisotropy binding of 5-FAM cargo peptides to SNX17FERM-CT; details: read-out: KD SNX17FERM-CT
T1 construct: His-Sumo3 (N, cleaved yes); made in house; host or cells: Escherichia coli BL21(DE3)
T1 sequence (Q15036 109-470): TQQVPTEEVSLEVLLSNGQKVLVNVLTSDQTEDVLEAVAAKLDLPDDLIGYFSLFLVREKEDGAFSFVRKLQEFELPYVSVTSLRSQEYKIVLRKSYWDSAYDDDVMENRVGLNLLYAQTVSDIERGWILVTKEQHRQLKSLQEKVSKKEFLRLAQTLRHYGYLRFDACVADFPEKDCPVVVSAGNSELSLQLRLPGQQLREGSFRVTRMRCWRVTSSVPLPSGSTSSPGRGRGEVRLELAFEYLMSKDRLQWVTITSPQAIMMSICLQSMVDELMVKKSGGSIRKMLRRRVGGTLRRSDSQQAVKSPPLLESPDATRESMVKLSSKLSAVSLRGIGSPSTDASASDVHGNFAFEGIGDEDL
Procedure: (§1) Lyophilized peptides were resuspended in 100 mM Hepes pH 8.0 at 5 mg/ml and further diluted in the assay buffer (50 mM Hepes pH 7.5, 300 mM NaCl, and 1 mM DTT). […] The mixture was incubated at 25 °C for at least 30 min and then transferred to 96 Flat Black plates. Fluorescence anisotropy was measured at 25 °C using Spark 10M Plate Reader (Tecan) with a 485/20 excitation filter and a 535/35 emission filter. The dissociation constants were calculated in GraphPad Prism by nonlinear regression fitting of the experimental data to a one-site total binding model. The final KD measurement is the mean of at least two independent experiments.

MBP-SNX17 L470G = target: T2, MBP-SNX17 L470G (Homo sapiens, UniProt Q15036, L470G); assay: Fluorescence anisotropy binding of 5-FAM cargo peptides to MBP-SNX17 L470G
T2 construct: M protein marker, R Retriever complex, FL full-length; His (N, cleaved yes); made in house; host or cells: Escherichia coli BL21(DE3)
T2 sequence (Q15036 1-470 L470G): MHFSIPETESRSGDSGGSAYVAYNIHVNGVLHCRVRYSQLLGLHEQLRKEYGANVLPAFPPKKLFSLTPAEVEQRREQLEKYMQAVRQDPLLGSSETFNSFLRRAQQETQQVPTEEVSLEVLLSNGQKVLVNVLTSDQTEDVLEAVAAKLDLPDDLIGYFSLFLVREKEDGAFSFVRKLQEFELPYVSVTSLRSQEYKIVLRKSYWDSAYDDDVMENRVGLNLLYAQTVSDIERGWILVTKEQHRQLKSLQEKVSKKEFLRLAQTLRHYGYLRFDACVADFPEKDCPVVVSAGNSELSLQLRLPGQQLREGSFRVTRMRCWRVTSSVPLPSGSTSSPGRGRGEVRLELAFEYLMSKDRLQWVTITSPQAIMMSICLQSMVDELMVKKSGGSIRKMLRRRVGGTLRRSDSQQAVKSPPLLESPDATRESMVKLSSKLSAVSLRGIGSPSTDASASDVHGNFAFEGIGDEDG
Procedure: as §1, with “The peptides used for binding assays were synthesized with an N-terminal 5-Carboxyfluorescein (FAM) and HPLC purified (≥95%) by GenScript. Lyophilized” for “Lyophilized”

MBP-SNX17 WT = target: T3, MBP-SNX17 WT (Homo sapiens, UniProt Q15036); assay: Fluorescence anisotropy binding of 5-FAM peptides to MBP-SNX17 wild-type
T3 construct: M protein marker, R Retriever complex, FL full-length; His (N, cleaved yes); made in house; host or cells: Escherichia coli BL21(DE3)
T3 sequence (Q15036 1-470): T2 sequence (Q15036 1-470 L470G) with G470L
Procedure: as §1

MBP-SNX17V380D = target: T4, MBP-SNX17V380D (Homo sapiens, UniProt Q15036, V380D); assay: Fluorescence anisotropy binding of 5-FAM peptides to MBP-SNX17 V380D
T4 construct: M protein marker, R Retriever complex, FL full-length; His (N, cleaved yes); made in house; host or cells: Escherichia coli BL21(DE3)
T4 sequence (Q15036 1-470 V380D): T2 sequence (Q15036 1-470 L470G) with V380D, G470L
Procedure: as §1

MBP-SNX17W321A = target: T5, MBP-SNX17W321A (Homo sapiens, UniProt Q15036, W321A); assay: Fluorescence anisotropy binding of 5-FAM peptides to MBP-SNX17 W321A
T5 construct: M protein marker, R Retriever complex, FL full-length; His (N, cleaved yes); made in house; host or cells: Escherichia coli BL21(DE3)
T5 sequence (Q15036 1-470 W321A): T2 sequence (Q15036 1-470 L470G) with W321A, G470L
Procedure: as §1

MBP = MBP (Escherichia coli, UniProt P0AEX9); assay: Fluorescence anisotropy, MBP negative control; assay type: binding
Procedure: as §1

VPS29 = target: T6, VPS29 (Homo sapiens, UniProt Q9UBQ0); assay: Fluorescence anisotropy binding of 5-FAM SNX17CT-18 to VPS29; details: 0.1 μM 5-FAM peptide, pH 7.5, 300 mM NaCl, 25 °C, two technical replicates (Fig. 3D)
T6 construct: GST (N, cleaved yes); made in house; host or cells: Escherichia coli BL21(DE3)
Procedure: as §1

VPS35L-VPS29 = target: T7, VPS35L-VPS29 (Homo sapiens, UniProt Q7Z3J2+Q9UBQ0); assay: Fluorescence anisotropy binding of 5-FAM SNX17CT-18 to VPS35L-VPS29; details: 0.1 μM 5-FAM peptide, pH 7.5, 300 mM NaCl, 25 °C, two technical replicates (Fig. 3D)
T7 construct: His (N, cleaved yes); made in house; host or cells: High Five insect cells (baculovirus)
Procedure: as §1

VPS26C = target: T8, VPS26C (Homo sapiens, UniProt O14972); assay: Fluorescence anisotropy binding of 5-FAM SNX17CT-18 to VPS26C; details: 0.1 μM 5-FAM peptide, pH 7.5, 300 mM NaCl, 25 °C, two technical replicates (Fig. 3D)
T8 construct: His-Sumo3 (N, cleaved yes); made in house; host or cells: Escherichia coli BL21(DE3)
Procedure: as §1

Kd [1]: 19.1 µM
Compound: QQNGYENPTYKFFE [APP 14-mer]

Kd [1]: 72.5 µM
Compound: KWDTGENPIYKSAV [ITGB1 P-14-mer]

Compound: MNVEIGNPTYKMYE [LRP1 14-mer]
Kd (MBP-SNX17 L470G): 2.8 ± 0.2 µM
Kd (MBP-SNX17 WT): 3 µM
Kd [1]: 2.23 µM
Kd (MBP-SNX17V380D; 0.1 μM 5-FAM peptide, pH 7.5, 300 mM NaCl, 25 °C, one-site total binding, Bmax fixed at 240, three biological replicates (Fig. 4E)): > 32 µM
Kd (MBP-SNX17V380D; 5-FAM peptide, Bmax fixed at 240, replicate Y1 (Fig. 4E source data), read-out: KD MBP-SNX17V380D): > 32 µM
Kd (MBP-SNX17V380D; 5-FAM peptide, Bmax fixed at 240, replicate Y2 (Fig. 4E source data), read-out: KD MBP-SNX17V380D): > 32 µM
Kd (MBP-SNX17V380D; 5-FAM peptide, Bmax fixed at 240, replicate Y3 (Fig. 4E source data), read-out: KD MBP-SNX17V380D): > 32 µM
Kd (MBP-SNX17W321A): > 32 µM
Kd (MBP-SNX17W321A; read-out: KD MBP-SNX17W321A, fluorescence anisotropy, 5-FAM peptide, Bmax fixed at 240, replicate Y2 (Fig. 4E source data)): > 32 µM
Kd (MBP; 0.1 μM 5-FAM peptide, pH 7.5, 300 mM NaCl, 25 °C (Fig. EV3B), read-out: KD MBP (negative control)): > 32 µM
Kd (MBP; 5-FAM peptide, replicate Y1 (Fig. 4E source data), read-out: KD MBP): > 32 µM
Kd (MBP; 5-FAM peptide, replicate Y2 (Fig. 4E source data), read-out: KD MBP): > 32 µM
Kd (MBP; 5-FAM peptide, replicate Y3 (Fig. 4E source data), read-out: KD MBP): > 32 µM

Compound: CC[C@H](C)[C@H](NC(=O)CNC(=O)[C@H](CCC(=O)O)NC(=O)[C@H](Cc1ccccc1)NC(=O)[C@H](C)NC(=O)[C@H](Cc1ccccc1)NC(=O)[C@H](CC(N)=O)NC(=O)CNC(=O)[C@H](Cc1c[nH]cn1)NC(=O)[C@@H](NC(=O)[C@H](CC(=O)O)NC(=O)[C@H](CO)NC(=O)[C@H](C)NC(=O)c1ccc2c(c1)C(=O)OC21c2ccc(O)cc2Oc2cc(O)ccc21)C(C)C)C(=O)NCC(=O)N[C@@H](CC(=O)O)C(=O)N[C@@H](CCC(=O)O)C(=O)N[C@@H](CC(=O)O)C(=O)N[C@@H](CC(C)C)C(=O)O [SNX17CT-18]
KD MBP-SNX17 WT (MBP-SNX17 WT; fluorescence anisotropy, 0.1 μM 5-FAM peptide, pH 7.5, 300 mM NaCl, 25 °C, one-site total binding, Bmax fixed at 240, mean ± SD of three biological replicates (Fig. 4E)): binds weakly
KD VPS29 (VPS29): no discernible binding
KD VPS35L-VPS29 (VPS35L-VPS29): weak interaction
KD VPS26C (VPS26C): no discernible binding
